pKd: −log10 of the molar value. “Also recorded” adds a separate entry of the source.
Legend:
ERRα = molecular target: T1, ERRα (Homo sapiens, UniProt P11474); experiment: ThermoFluor thermal shift assay, ERRα; format: binding; details: 100 μM test compound, 0.1 mg/mL protein, 25 mM HEPES pH 8.0, 25 μM ANS, 2% DMSO, Tm free protein 54.4 °C
T1 sequence (P11474 193-421 limits assumed): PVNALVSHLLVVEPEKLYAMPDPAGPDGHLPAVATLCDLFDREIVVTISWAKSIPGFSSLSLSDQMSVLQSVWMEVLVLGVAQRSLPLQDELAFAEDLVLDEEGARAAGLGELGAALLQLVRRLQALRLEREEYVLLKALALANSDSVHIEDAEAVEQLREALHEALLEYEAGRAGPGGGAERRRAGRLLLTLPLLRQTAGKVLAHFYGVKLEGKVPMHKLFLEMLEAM

[1] = molecular target: T2, ligand binding domain of ERRγ (Homo sapiens, UniProt P62508); experiment: Thermal denaturation monitored by CD spectroscopy; details: data not shown
T2 construct: 6His; made in house; host or cells: E. coli BL21(DE3)
T2 sequence (P62508 229-458): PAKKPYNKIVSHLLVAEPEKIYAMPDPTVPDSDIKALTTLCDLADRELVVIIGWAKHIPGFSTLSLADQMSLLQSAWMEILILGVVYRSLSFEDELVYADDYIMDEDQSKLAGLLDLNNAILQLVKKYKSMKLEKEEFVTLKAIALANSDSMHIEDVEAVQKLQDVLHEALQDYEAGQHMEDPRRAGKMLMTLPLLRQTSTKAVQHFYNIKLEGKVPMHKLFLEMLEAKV
Excerpt: Ligand binding energy adds directly to the ground state energy of a macromolecule and results in increased thermal stability. The degree of stabilization is proportional to the binding affinity of the ligand for the macromolecule.

ERRβ = molecular target: T3, ERRβ (Homo sapiens, UniProt O95718); experiment: ThermoFluor thermal shift assay, ERRβ; format: binding
T3 sequence (O95718 208-432 limits assumed): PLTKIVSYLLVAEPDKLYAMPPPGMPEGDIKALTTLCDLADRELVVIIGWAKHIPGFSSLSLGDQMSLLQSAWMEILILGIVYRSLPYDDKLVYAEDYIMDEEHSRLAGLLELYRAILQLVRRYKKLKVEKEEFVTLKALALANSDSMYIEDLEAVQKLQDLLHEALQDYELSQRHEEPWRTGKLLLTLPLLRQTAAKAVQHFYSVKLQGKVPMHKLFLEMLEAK

ERα = molecular target: T4, ERα (Homo sapiens, UniProt P03372); experiment: ThermoFluor thermal shift assay, ERα; format: binding
T4 sequence (P03372 1-595): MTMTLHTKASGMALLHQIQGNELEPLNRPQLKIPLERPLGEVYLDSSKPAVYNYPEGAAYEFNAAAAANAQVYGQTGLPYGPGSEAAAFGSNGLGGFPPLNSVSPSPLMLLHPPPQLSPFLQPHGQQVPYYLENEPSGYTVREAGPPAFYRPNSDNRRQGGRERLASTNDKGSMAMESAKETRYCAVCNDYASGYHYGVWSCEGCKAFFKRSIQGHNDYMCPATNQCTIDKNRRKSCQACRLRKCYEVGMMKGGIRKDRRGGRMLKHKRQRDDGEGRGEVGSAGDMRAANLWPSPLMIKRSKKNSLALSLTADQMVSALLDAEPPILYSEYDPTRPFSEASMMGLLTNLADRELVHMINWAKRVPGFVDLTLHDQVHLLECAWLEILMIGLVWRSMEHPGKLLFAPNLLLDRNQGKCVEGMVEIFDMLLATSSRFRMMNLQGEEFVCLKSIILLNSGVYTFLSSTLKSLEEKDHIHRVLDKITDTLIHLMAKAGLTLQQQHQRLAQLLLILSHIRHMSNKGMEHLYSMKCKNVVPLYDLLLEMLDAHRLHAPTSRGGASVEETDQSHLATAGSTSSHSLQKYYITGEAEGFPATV

pBIND-Gal4-ERRγ = experiment: Cell based reporter (trans-activation) assay in HEK293E cells; details: luciferase reporter, Gal4-ERRγ and pACT-SRC2, 24 hours of compound treatment
Protocol: A cell based reporter assay was used to determine the functional response of the ERRγ hits. Transfections were performed in HEK293E cells that were maintained in DMEM supplemented in glutamine and 10% FBS. Co-transfections of 4 μg of a luciferase reporter plasmid and 4 μg of each pBIND-Gal4-ERRγ and pACT-SRC2 plasmids per T-75 flask were done using Lipofectamine as per manufacturers instructions. Twenty-four hours post-transfection, the cells were seeded in 96-well plates at density of 50,000 cells per well in assay media (DMEM phenol free, 5% charcoal stripped FBS). […] After 24 hours of compound treatment, cells were lysed and treated with the Promega Dual-Glo system. Firefly Luciferase activity was read using a luminescence plate reader, and data were normalized against Renilla luciferase activity. Data were fitted using subroutines available from GraphPad.

ERRγ = molecular target: T5, ERRγ (Homo sapiens, UniProt P62508); experiment: Isothermal titration calorimetry; format: binding
T5 construct: 6His; made in house; host or cells: E. coli BL21(DE3)
T5 sequence (P62508 229-458): T2 sequence (P62508 229-458)
Protocol: The heat of interaction of the ligands with ERRγ molecules was measured by using the Omega titration calorimeter from Microcal Inc. In a typical titration, 1.4 mL of a 20 μM protein solution is titrated with a ligand solution of ˜0.4 mM concentration using a 100 μL syringe by ˜20 injections of 5-6 μL each. This syringe is also used to mix the reactants completely in the sample cell by rotating it at 400 rpm. For each injection, the area under the resulting peak is proportional to the heat of interaction, Q. Once this heat is corrected for the titrant dilution and normalized by the titrant solution concentration it becomes equal to the binding enthalpy, ΔHb, under nonsaturating conditions. The precision of the heat of each injection is about 0.5 μcal. One method of determining ΔHb is to average several intermediate peaks from the different sites. In addition to the binding enthalpies, one can obtain binding affinities, and overall stoichiometries of the complexes. The experimental calorimetric binding isotherm is the dependence of the total heat, Qr, (or dQrldX T) on the total concentration of ligand added, Xr. The above three parameters for each type of site are determined iteratively using the Marquardt algorithms as described previously.

ERRγ-SRC2 complex = molecular target: T6, ERRγ-SRC2 complex (Homo sapiens, UniProt P62508); experiment: TR-FRET co-activator recruitment assay; format: biochemical
T6 construct: made in house; host or cells: E. coli BL21(DE3) (ERRγ LBD)
T6 sequence (P62508 229-458): T2 sequence (P62508 229-458)
Protocol: For FRET measurements, the reaction was buffered in 25 mM Tris pH 8, 2.5 mM Hepes, 20 mM KCl, 1 mM DTT, and 0.05 mg/mL delipidated BSA.
Time-resolved Fluorescence resonance energy transfer (FRET) experiments were performed to examine the functional response of ERRγ ligands.
For FRET measurements, the reaction was buffered in 25 mM Tris pH 8, 2.5 mM Hepes, 20 mM KCl, 1 mM DTT, and 0.05 mg/mL BSA (-lipids). […] Reactions were allowed to reach equilibrium at 25° C. for 4-18 hours before collecting data on the Analyst from LJL Biosystems (Molecular Devices Sunnyvale, Calif.). […] Dose response curves were fitted using a hyperbolic equation and the data reported is the average of three independent experiments.

ERβ = ERβ (Homo sapiens, UniProt Q92731); experiment: ThermoFluor thermal shift assay, ERβ; format: binding; details: 100 μM test compound; 0.1 mg/mL protein, 25 mM HEPES pH 8.0; Tm free protein 41.1 °C; read-out: ΔTm, thermal stabilization of ERβ
Chain of ERβ (Q92731 whole entry, species assumed): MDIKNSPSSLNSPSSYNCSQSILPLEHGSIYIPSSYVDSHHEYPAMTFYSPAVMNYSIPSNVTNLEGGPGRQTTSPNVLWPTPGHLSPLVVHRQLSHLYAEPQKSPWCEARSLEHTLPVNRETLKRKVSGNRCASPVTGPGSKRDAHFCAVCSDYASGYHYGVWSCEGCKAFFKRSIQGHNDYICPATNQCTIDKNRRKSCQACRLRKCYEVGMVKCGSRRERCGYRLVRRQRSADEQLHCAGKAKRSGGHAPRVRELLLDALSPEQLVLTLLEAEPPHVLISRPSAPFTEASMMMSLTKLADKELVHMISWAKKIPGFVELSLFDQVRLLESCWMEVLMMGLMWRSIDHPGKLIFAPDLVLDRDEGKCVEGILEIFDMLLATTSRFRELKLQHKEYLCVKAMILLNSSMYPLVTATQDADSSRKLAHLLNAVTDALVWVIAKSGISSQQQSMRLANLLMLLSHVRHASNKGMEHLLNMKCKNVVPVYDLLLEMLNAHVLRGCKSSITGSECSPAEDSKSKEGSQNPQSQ

| ΔTm at 100 µM (ERRα; read-out: ΔTm, thermal stabilization of ERRα) | pKd (ERRγ; 20 μM protein titrated with ~0.4 mM ligand, read-out: Binding affinity by isothermal titration calorimetry) | Binding enthalpy ΔHb (ERRγ; isothermal titration calorimetry) | Enhancement in the affinity of the receptor for co-activator peptide fragments, in words (ERRγ-SRC2 complex) | ΔTm at 100 µM (ERRβ; 100 μM test compound, 0.1 mg/mL protein, 25 mM HEPES pH 8.0, Tm free protein 47.5 °C, read-out: ΔTm, thermal stabilization of ERRβ) | ΔTm at 100 µM (ERα; 100 μM test compound, 0.1 mg/mL protein, 25 mM HEPES pH 8.0, Tm free protein 39.1 °C, read-out: ΔTm, thermal stabilization of ERα) | ΔTm at 100 µM (ERβ) | Compound | ΔTm, thermal stabilization of ERRα (ERRα) | Thermal stabilization of ERRγ by loss of α-helicity (CD), in words [1] | ΔTm, thermal stabilization of ERRβ (ERRβ; 100 μM test compound, 0.1 mg/mL protein, 25 mM HEPES pH 8.0, Tm free protein 47.5 °C) | pKd (ERRβ; calculated at reference temperature 25 °C from ΔTm of Table II, ΔHu 155 kcal/mol, read-out: Estimated dissociation constant, ERRβ) | ΔTm, thermal stabilization of ERα (ERα; pH 8) | Change in transcriptional activity in trans-activation cellular assay, in words (pBIND-Gal4-ERRγ) | Displacement of co-activator peptide from ERRγ (antagonism), in words (ERRγ-SRC2 complex; 6 nM ERRγ LBD, 6 nM GST-SRC-2 peptide) |
| --- | --- | --- | --- | --- | --- | --- | --- | --- | --- | --- | --- | --- | --- | --- |
|  |  |  |  |  |  |  | 4-hydroxytamoxifen [4OHT] | −0.1 °C | positive thermal stabilization | 2.15 °C | 5.58 | 17.1 °C |  |  |
| 0 °C | 7.15 | ~-21 kcal/mol | not able to demonstrate | -0.1 °C | 4.4 °C | 7.4 °C | CC(C)(c1ccc(O)cc1)c1ccc(O)cc1 [BPA, bisphenol A] |  |  |  |  |  | not able to demonstrate | ineffective; also recorded: neither ligand displaced co-activator peptide |
